≈ marks a conversion by molar mass, not a printed value.
Columns and labels:
Staphylococcus aureus [1] = assay: Antimicrobial activity against Staphylococcus aureus 285 isolate after 18 hrs; format: functional
SK-OV-3 = assay: Cytotoxicity against human SKOV3 cells; format: functional; details: read-out: ED50 (the source's name)
Escherichia coli [2] = assay: Antimicrobial activity against Escherichia coli TEM isolate after 18 hrs; format: functional
Klebsiella oxytoca = assay: Antimicrobial activity against Klebsiella oxytoca 1082E after 18 hrs; format: functional
Streptococcus pyogenes [3] = assay: Antimicrobial activity against Streptococcus pyogenes 308A isolate after 18 hrs; format: functional
HCT-15 = assay: Cytotoxicity against human HCT15 cells; format: functional; details: read-out: ED50 (the source's name)
Streptococcus pyogenes [4] = assay: Antimicrobial activity against Streptococcus pyogenes 77A isolate after 18 hrs; format: functional
SK-MEL-2 = assay: Cytotoxicity against human SK-MEL-2 cells; format: functional; details: read-out: ED50 (the source's name)
Staphylococcus aureus [5] = assay: Antimicrobial activity against Staphylococcus aureus 503 isolate after 18 hrs; format: functional
Salmonella typhimurium = assay: Antimicrobial activity against Salmonella Typhimurium after 18 hrs; format: functional, Salmonella enterica subsp. enterica serovar Typhimurium; details: Salmonella enterica
Pseudomonas aeruginosa [6] = assay: Antimicrobial activity against Pseudomonas aeruginosa 1771 isolate after 18 hrs; format: functional
Escherichia coli [7] = assay: Antimicrobial activity against Escherichia coli 078 isolate after 18 hrs; format: functional
Enterococcus faecium = assay: Antimicrobial activity against Streptococcus faecium MD8b isolate after 18 hrs; format: functional
Escherichia coli [8] = assay: Antimicrobial activity against Escherichia coli DC2 isolate after 18 hrs; format: functional
Enterobacter cloacae [9] = assay: Antimicrobial activity against Enterobacter cloacae P99 after 18 hrs; format: functional
Pseudomonas aeruginosa [10] = assay: Antimicrobial activity against Pseudomonas aeruginosa 1771M isolate after 18 hrs; format: functional
XF498 = assay: Cytotoxicity against human XF498 cells; format: functional; details: read-out: ED50 (the source's name)
Pseudomonas aeruginosa [11] = assay: Antimicrobial activity against Pseudomonas aeruginosa 1592E isolate after 18 hrs; format: functional
Pseudomonas aeruginosa [12] = assay: Antimicrobial activity against Pseudomonas aeruginosa 9027 isolate after 18 hrs; format: functional
Enterobacter cloacae [13] = assay: Antimicrobial activity against Enterobacter cloacae 1321E after 18 hrs; format: functional
Escherichia coli [14] = assay: Antimicrobial activity against Escherichia coli 1507E isolate after 18 hrs; format: functional
Staphylococcus aureus [15] = assay: Antimicrobial activity against Staphylococcus aureus SG511 isolate after 18 hrs; format: functional
Escherichia coli [16] = assay: Antimicrobial activity against Escherichia coli DC0 isolate after 18 hrs; format: functional
Klebsiella aerogenes = assay: Antimicrobial activity against Klebsiella aerogenes 1522E after 18 hrs; format: functional
A549 = assay: Cytotoxicity against human A549 cells; format: functional; details: read-out: ED50 (the source's name)

| MIC (Staphylococcus aureus [1]) [µg/mL] | MIC (Escherichia coli [2]) [µg/mL] | MIC (Klebsiella oxytoca) [µg/mL] | MIC (Streptococcus pyogenes [3]) [µg/mL] | MIC (Streptococcus pyogenes [4]) [µg/mL] | MIC (Staphylococcus aureus [5]) [µg/mL] | MIC (Salmonella typhimurium) [µg/mL] | MIC (Pseudomonas aeruginosa [6]) [µg/mL] | MIC (Escherichia coli [7]) [µg/mL] | MIC (Enterococcus faecium) [µg/mL] | MIC (Escherichia coli [8]) [µg/mL] | MIC (Enterobacter cloacae [9]) [µg/mL] | MIC (Pseudomonas aeruginosa [10]) [µg/mL] | MIC (Pseudomonas aeruginosa [11]) [µg/mL] | MIC (Pseudomonas aeruginosa [12]) [µg/mL] | MIC (Enterobacter cloacae [13]) [µg/mL] | Compound | EC50 (SK-OV-3) [µg/mL] | EC50 (HCT-15) [µg/mL] | EC50 (SK-MEL-2) [µg/mL] | EC50 (XF498) [µg/mL] | also measured |
| --- | --- | --- | --- | --- | --- | --- | --- | --- | --- | --- | --- | --- | --- | --- | --- | --- | --- | --- | --- | --- | --- |
| > 25 | > 25 | > 25 | 25 (≈ 52.2 µM) | 25 (≈ 52.2 µM) | > 25 | > 25 | 12.5 (≈ 26.1 µM) | > 25 | > 25 | > 25 | > 25 | 25 (≈ 52.2 µM) | > 25 | > 25 | > 25 | C/C(=C\[C@@H](C)[C@H]1C[C@@H](O)[C@@H]2[C@]1(C)CC[C@@H]1[C@@]3(C)CC[C@H](O)C[C@@H]3[C@@H](O)C[C@]12O)[C@H](C)[C@@H](C)CO [CERTONARDOSTEROL I] | 8.8 (≈ 18.4 µM) | 6.3 (≈ 13.2 µM) | 5.3 (≈ 11.1 µM) | 7.3 (≈ 15.2 µM) | MIC (Escherichia coli [14]): > 25 µg/mL; MIC (Staphylococcus aureus [15]): > 25 µg/mL; MIC (Escherichia coli [16]): > 25 µg/mL; MIC (Klebsiella aerogenes): > 25 µg/mL; EC50 (A549): 5.1 µg/mL (≈ 10.7 µM) |
| > 25 | > 25 | > 25 | 25 (≈ 54 µM) | 25 (≈ 54 µM) | > 25 | > 25 | 12.5 (≈ 27 µM) | > 25 | > 25 | > 25 | > 25 | 25 (≈ 54 µM) | > 25 | > 25 | > 25 | C/C(=C\[C@@H](C)[C@H]1C[C@@H](O)[C@H]2[C@@H]3C[C@H](O)[C@H]4C[C@@H](O)CC[C@]4(C)[C@H]3CC[C@@]21C)[C@H](C)[C@@H](C)CO [CERTONARDOSTEROL J] | 10.3 (≈ 22.3 µM) | 12.5 (≈ 27 µM) | 7.1 (≈ 15.3 µM) | 11.4 (≈ 24.6 µM) | MIC (Escherichia coli [14]): > 25 µg/mL; MIC (Staphylococcus aureus [15]): > 25 µg/mL; MIC (Escherichia coli [16]): > 25 µg/mL; MIC (Klebsiella aerogenes): > 25 µg/mL; EC50 (A549): 8 µg/mL (≈ 17.3 µM) |

— ChEMBL document CHEMBL1150678, “Bioactive sterols from the starfish Certonardoa semiregularis” (2003)
